According to patent publication US11946094B2, “Combination therapies and methods of use thereof” (Augusta University Research Institute, Inc., priority 2017, dated 2024):
Where two headings read alike, the source gives them in different places.

Key:
OVCAR-8 cells [1] = assay: Drug-siRNA combination screen: 346-compound anticancer library at 100 nM, CCK-8 viability; conditions: for synergy / antagonism of drug with gene knockdowns, in words: drug 100 nM, panel of 18 siRNA knockdowns; for number of tested HDACi highly synergistic with the gene knockdown: 12 tested HDACi; for number of antagonistic/additive or highly antagonistic compounds with the gene knockdown: 346 compounds
OVCAR-8 cells [2] = assay: Drug titration (GI50) with S100A11 siRNA knockdown versus sham control; type: cell-based; conditions: serial dilution of drug, three replicates
Procedure: Statistical analyses were performed using the R language and environment for statistical computing (R version 3.3.1; R Foundation for Statistical Computing) and Microsoft Excel. Student's T-test (two-tailed, unpaired) was used to calculate p-values for confirmation of drug effect. GI50 values were calculated using a four-parameter logistic function to obtain a classical “s” curve for drug titrations using SigmaPlot (Systat Software, San Jose, CA). Heatmaps were created using the R package “pheatmap”. Clustering was done with WPGMA hierarchical clustering. QIAGEN's Ingenuity Pathway Analysis (IPA®, QIAGEN Redwood City) was utilized for assessment of network and pathway contributions of top genes identified using the NCI-60 correlations.
An important measure of synergism is the dosage reduction of a therapeutic compound by another agent. Titration screening with several compounds was performed to compare growth curves with and without knockdown of S100A11 or KLHL5. […] KLHL5 also was synergistic with other cell cycle inhibitors and PI3K-AKT-mTOR inhibitors. Titration curves and calculation of GI50 were performed for twenty-four compounds.

AB1-HA tumor model = conditions: CTX treatment at Day 9; cited from earlier work
[3] = OVCAR-8, drug 100 nM plus siRNA knockdown of each of 18 genes, distance VAB−VA×VB in SD, single gene contributes at most +5 / −5, negative = synergy, positive = antagonism

| Compound | Score (sum of observed SD values for 18 genes) (OVCAR-8 cells [1]; [3]) [SD] | other results |
| --- | --- | --- |
| O=C(/C=C/c1cccc(S(=O)(=O)Nc2ccccc2)c1)NO [Belinostat] | −20.81 | synergy / antagonism of drug with gene knockdowns, in words (OVCAR-8 cells [1]; OVCAR-8): mostly synergistic; dose reduction of GI50 value by S100A11 siRNA versus sham control (OVCAR-8 cells [2]): 5.56 fold |
| O=P1(N(CCCl)CCCl)NCCCO1 (stereo not shown) [Cyclophosphamide] |  | cure rate (AB1-HA tumor model): 75% |
| Cn1cc(CNCC2CCN(c3ncc(C(=O)NO)cn3)CC2)c2ccccc21 [JNJ-26481585, Quisinostat] | −2.31 | dose reduction of GI50 value by S100A11 siRNA versus sham control (OVCAR-8 cells [2]): 5.53 fold |
| CC(C)[C@]12O[C@H]1[C@@H]1O[C@]13[C@]1(O[C@H]1C[C@H]1C4=C(CC[C@@]13C)C(=O)OC4)[C@@H]2O [Triptolide] | −15.95 |  |
| CC(C)C[C@H](NC(=O)[C@@H](O)[C@H](N)Cc1ccccc1)C(=O)O [Ubinimex] | −17.36 |  |
| Cc1ccc2c(=O)c3cccc(CC(=O)O)c3oc2c1C [Vadimezan] | −28.75 |  |
| Cl.Cl.Clc1ccc(Nc2nnc(Cc3ccncc3)c3ccccc23)cc1 [Vatalanib 2HCI] | −3.51 |  |
| CCOC(=O)C1=C[C@]2(CC)CCCN3CCc4c(n1c1ccccc41)[C@@H]32 [Vinpocetine] | −1.42 |  |
| CC[C@@H]1C(=O)N(C)c2cnc(Nc3ccc(C(=O)N[C@H]4CC[C@H](N5CCN(CC6CC6)CC5)CC4)cc3OC)nc2N1C(C)C [Volasertib] | 10.79 |  |
| CC(C)OC(=O)C1=CN(C(=O)c2ccc(F)c(F)c2)CC(C)(C)c2c1[nH]c1ccccc21 [WAY-362450] | −29.97 |  |
| CCC[C@H](NC(=O)/C(C#N)=C/c1cccc(Br)n1)c1ccccc1 [WP1130] | 3.15 |  |
| C=CC(=O)Nc1cccc(Oc2nc(Nc3ccc(N4CCN(C)CC4)cc3OC)ncc2Cl)c1 [WZ4002] | −41.61 |  |
| Oc1nc(-c2ccc(C(F)(F)F)cc2)nc2c1CSCC2 [XAV-939] | −29.25 |  |
| COc1ccc(Cl)c(Nc2nc3ccccc3nc2NS(=O)(=O)c2cccc(NC(=O)C(C)(C)N)c2)c1 [XL147] | −30.94 |  |
| CCn1c(=O)c(-c2cc[nH]n2)cc2c(C)nc(N)nc21 [XL765] | −10.06 |  |
| C[C@@H](N)[C@H]1CC[C@H](C(=O)Nc2ccncc2)CC1.Cl.Cl [Y-27632 2HCI] | −28.91 |  |

| Compound | Score (sum of observed SD values for 18 genes) (OVCAR-8 cells [1]; [3]) [SD] | other results |
| --- | --- | --- |
| COCCn1c2c([n+](Cc3cnccn3)c1C)C(=O)c1ccccc1C2=O [YM155] | −1.58 |  |
| Nc1ccc(C(=O)Nc2cccc(-c3nc(N4CCOCC4)c4oc5ncccc5c4n3)c2)cn1 [YM201636] | −32.89 |  |
| FC(F)c1nc2ccccc2n1-c1nc(N2CCOCC2)nc(N2CCOCC2)n1 [ZSTK474] | -52.94 | synergy / antagonism of drug with gene knockdowns, in words (OVCAR-8 cells [1]; OVCAR-8): synergy to the vast majority of genes |
| COc1nc(C)cnc1NS(=O)(=O)c1cccnc1-c1ccc(-c2nnco2)cc1 [Zibotentan] | 10.07 |  |
| CC(c1cc2ccccc2s1)N(O)C(N)=O (stereo not shown) [Zileuton] | −19.64 |  |
| AXL: siRNA knocking down AXL; sense CAGCGAGAUUUAUGACUAUtt (SEQ ID NO 15) (sense CAGCGAGAUUUAUGACUAUNN; antisense AUAGUCAUAAAUCUCGCUGNN; listed as RNA, chemistry not given here) |  | number of tested HDACi highly synergistic with the gene knockdown (OVCAR-8 cells [1]; OVCAR-8): at least six; number of antagonistic/additive or highly antagonistic compounds with the gene knockdown (OVCAR-8 cells [1]; OVCAR-8): Twelve or fewer |
| AZ 3146 | −22.56 |  |
| KLHL5: siRNA knocking down KLHL5; sense CAGGCCGCCUUGAAUUAAAtt (SEQ ID NO 23) (sense CAGGCCGCCUUGAAUUAAANN; antisense UUUAAUUCAAGGCGGCCUGNN; listed as RNA, chemistry not given here) |  | number of tested HDACi highly synergistic with the gene knockdown (OVCAR-8 cells [1]; OVCAR-8): at least six; number of antagonistic/additive or highly antagonistic compounds with the gene knockdown (OVCAR-8 cells [1]; OVCAR-8): Twelve or fewer; number of Aurora Kinase inhibitors with significant synergy with the gene knockdown (OVCAR-8 cells [1]; OVCAR-8, eleven tested inhibitors): eight of the eleven |
| Maraviroc |  | Score (sum of observed SD values for 18 genes) (OVCAR-8 cells [1]): 0.11 SD |
| Medroxyprogesterone | −35.82 |  |
| S100A11: siRNA knocking down S100A11; sense GAACUAGCUGCCUUCACAAtt (SEQ ID NO 27) (sense GAACUAGCUGCCUUCACAANN; antisense UUGUGAAGGCAGCUAGUUCNN; chemistry not given here) |  | number of tested HDACi highly synergistic with the gene knockdown (OVCAR-8 cells [1]; OVCAR-8): 10 of 12 |
| SLC7A11: siRNA knocking down SLC7A11; sense GGCUGAUUUAUCUUCGAUAtt (SEQ ID NO 31) (sense GGCUGAUUUAUCUUCGAUANN; antisense UAUCGAAGAUAAAUCAGCCNN; listed as RNA, chemistry not given here) |  | number of tested HDACi highly synergistic with the gene knockdown (OVCAR-8 cells [1]; OVCAR-8): at least six; number of antagonistic/additive or highly antagonistic compounds with the gene knockdown (OVCAR-8 cells [1]; OVCAR-8): Twelve or fewer |
| SNS-314 Mesylate | −1.05 |  |
| USP40: siRNA knocking down USP40; sense GGAAACUAGCUGUUAUACAtt (SEQ ID NO 35) (sense GGAAACUAGCUGUUAUACANN; antisense UGUAUAACAGCUAGUUUCCNN; listed as RNA, chemistry not given here) |  | number of tested HDACi highly synergistic with the gene knockdown (OVCAR-8 cells [1]; OVCAR-8): at least six; number of antagonistic/additive or highly antagonistic compounds with the gene knockdown (OVCAR-8 cells [1]; OVCAR-8): Twelve or fewer |
| WYE-354 | −13.86 |  |
